The source of these data is PMC2607046 (Journal of medicinal chemistry, 2008).

The term Ki denotes a measure of affinity in units of concentration, obtained from inhibition or displacement. Low values mean a stronger hold on the target, high ones a looser hold on the target.

The target of experiment [1] is dopamine D3 receptor (Rattus norvegicus, UniProt P19020). The format is binding.
The target of experiment [2] is dopamine D2L receptor (Rattus norvegicus, UniProt P61169). The format is binding.
The mark [3] stands for this setting: 35c (spacer length 4) relative to 35a (spacer length 2).

Sequence of dopamine D2L receptor (P61169 whole entry): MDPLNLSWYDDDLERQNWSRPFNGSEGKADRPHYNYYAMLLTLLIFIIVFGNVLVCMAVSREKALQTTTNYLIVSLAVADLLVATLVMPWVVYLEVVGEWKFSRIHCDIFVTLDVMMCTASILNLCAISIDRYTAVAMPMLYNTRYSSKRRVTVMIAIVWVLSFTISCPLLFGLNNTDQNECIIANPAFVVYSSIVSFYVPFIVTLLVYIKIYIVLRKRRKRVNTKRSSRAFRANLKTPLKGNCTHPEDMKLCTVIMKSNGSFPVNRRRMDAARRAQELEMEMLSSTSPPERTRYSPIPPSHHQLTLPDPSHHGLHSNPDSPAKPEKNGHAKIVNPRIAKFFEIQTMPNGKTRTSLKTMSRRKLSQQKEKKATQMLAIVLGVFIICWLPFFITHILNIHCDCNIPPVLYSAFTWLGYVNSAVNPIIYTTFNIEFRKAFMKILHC
Sequence of dopamine D3 receptor (P19020 whole entry): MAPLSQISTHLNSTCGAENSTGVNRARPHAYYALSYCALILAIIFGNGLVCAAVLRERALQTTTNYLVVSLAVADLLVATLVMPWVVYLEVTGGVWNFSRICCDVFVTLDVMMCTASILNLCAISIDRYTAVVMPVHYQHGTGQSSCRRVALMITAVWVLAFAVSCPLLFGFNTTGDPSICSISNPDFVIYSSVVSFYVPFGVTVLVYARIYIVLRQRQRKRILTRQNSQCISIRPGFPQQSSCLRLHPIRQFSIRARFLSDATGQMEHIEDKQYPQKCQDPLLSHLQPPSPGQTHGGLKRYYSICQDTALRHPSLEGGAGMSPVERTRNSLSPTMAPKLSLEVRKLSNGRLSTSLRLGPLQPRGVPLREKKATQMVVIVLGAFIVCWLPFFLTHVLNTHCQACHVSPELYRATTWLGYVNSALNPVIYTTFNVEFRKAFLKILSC

In turn, `Oc1cccc2c1CC[C@H]1[C@H]2CCCN1CCN1CCN(c2ccccc2)CC1` (racemic) [(±)-8, (±)-trans-4-(2-(4-Phenylpiperazin-1-yl)ethyl)-1,2,3,4,4a,5,6,10b-octahydrobenzo[f]-quinolin-7-ol] had a Ki in experiment [1] of 14.9 ± 4.3 nM.
Regarding `Oc1ccc2c(c1)C[C@H]1[C@@H](CCCN1CCCCN1CCN(c3ccccc3)CC1)C2` (racemic) [(±)-35c, (±)-trans-1-[4-(4-Phenylpiperazin-1-yl)butyl]-1,2,3,4,4a,5,10,10a-octahydrobenzo-[g]quinolin-8-ol], in experiment [2] (setting [3]), the “gain in affinity for D2 receptor” value is ~ 9 fold. Besides, the “gain in affinity for D3 receptor” value in experiment [1] (setting [3]) is listed as ~ 3 fold.
Regarding `CCCN(CCN1CCN(c2ccccc2)CC1)[C@H]1CCc2c(O)cccc2C1` [(−)-7], the “difference in inhibition constants between enantiomers, D2L receptor” value in experiment [2] ((−)-7 versus its enantiomer (+)-7) is ~ 9 fold.
